Assay results taken from ChEMBL document CHEMBL1201862, “PubChem BioAssay data set” (2004).
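Growth conditions: 96-well plates. Treatment: test compound, 48 hours, 5 concentrations. Analysis: linear interpolation between bracketing concentrations; unreached endpoints set to highest concentration. GI50 = concentration required for 50% inhibition of growth.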 The source made the active and inactive calls. Cut-off read from the data, not from the text of the source: active = GI50 up to about 1.1 µM and inactive = higher.

Experiments:
Assay in all cases: NCI anticancer screen, dose series, 48 h
SF-539 = test system: SF-539
M14 = test system: M14
Hs-578T = test system: Hs-578T
MOLT-4 = test system: MOLT-4
DU-145 = test system: DU-145
COLO 205 = test system: COLO 205
OVCAR-3 = test system: OVCAR-3
MDA-N = test system: MDA-N
MCF7 = test system: MCF7
HOP-92 = test system: HOP-92
PC-3 = test system: PC-3
NCI-H226 = test system: NCI-H226
HOP-62 = test system: HOP-62
UO-31 = test system: UO-31
786-0 = test system: 786-0
T47D = test system: T47D
NCI-H522 = test system: NCI-H522
OVCAR-5 = test system: OVCAR-5
BT-549 = test system: BT-549
Malme-3M = test system: Malme-3M

Row | SMILES | GI50 (SF-539) | GI50 (M14) | GI50 (Hs-578T) | GI50 (MOLT-4) | GI50 (DU-145) | GI50 (COLO 205) | GI50 (OVCAR-3) | GI50 (MDA-N) | GI50 (MCF7) | GI50 (HOP-92) | GI50 (PC-3) | GI50 (NCI-H226) | GI50 (HOP-62) | GI50 (UO-31) | GI50 (786-0) | GI50 (T47D) | GI50 (NCI-H522) | GI50 (OVCAR-5) | GI50 (BT-549) | GI50 (Malme-3M)
1 | Cc1c(C2=C(Br)C(=O)N(C)C2=O)c(=O)n(C)c(=O)n1C | 14.9 µM (inactive) | 35.1 µM (inactive) | > 100 µM (inactive) | 15.8 µM (inactive) | 28 µM (inactive) | 15.3 µM (inactive) | 37.2 µM (inactive) | 28.1 µM (inactive) | 20.2 µM (inactive) | 17.7 µM (inactive) | 23.6 µM (inactive) | > 100 µM (inactive) | > 100 µM (inactive) | 18.5 µM (inactive) | 17.5 µM (inactive) | 19.8 µM (inactive) | 13.6 µM (inactive) | 61.8 µM (inactive) | 24.3 µM (inactive) | –
2 | O=c1onc2n1-c1cc(Cl)ccc1C(=S)N1CSCC21 (stereo not drawn) | – | > 100 µM (inactive) | > 100 µM (inactive) | > 100 µM (inactive) | > 100 µM (inactive) | > 100 µM (inactive) | > 100 µM (inactive) | > 100 µM (inactive) | > 100 µM (inactive) | – | > 100 µM (inactive) | > 100 µM (inactive) | > 100 µM (inactive) | > 100 µM (inactive) | > 100 µM (inactive) | > 100 µM (inactive) | > 100 µM (inactive) | > 100 µM (inactive) | > 100 µM (inactive) | > 100 µM (inactive)
3 | CC(=O)n1nc(-c2ccc3ccccc3c2)nc1C | > 100 µM (inactive) | > 100 µM (inactive) | 39.4 µM (inactive) | 56.8 µM (inactive) | 94.6 µM (inactive) | > 100 µM (inactive) | > 100 µM (inactive) | 70.8 µM (inactive) | > 100 µM (inactive) | – | 62.2 µM (inactive) | – | 39.5 µM (inactive) | 39.4 µM (inactive) | > 100 µM (inactive) | 52.4 µM (inactive) | > 100 µM (inactive) | > 100 µM (inactive) | 48.6 µM (inactive) | > 100 µM (inactive)
4 | CCN(CC)C(=S)SC(C(=O)Nc1nnc(-c2ccc(Cl)cc2)o1)c1ccccc1 (stereo not drawn) | 14.8 µM (inactive) | 10.8 µM (inactive) | 35.4 µM (inactive) | 3.48 µM (inactive) | 20.1 µM (inactive) | 4.06 µM (inactive) | 3.21 µM (inactive) | 17.3 µM (inactive) | 7.26 µM (inactive) | 16.6 µM (inactive) | 3.35 µM (inactive) | – | 14.7 µM (inactive) | 17 µM (inactive) | 10 µM (inactive) | 6.53 µM (inactive) | 4.62 µM (inactive) | 6.41 µM (inactive) | 28.5 µM (inactive) | 13.8 µM (inactive)
5 | CC#CC(O)(C(=O)OC1CC2CCC(C1)N2C)C1CCCC1 (stereo not drawn) | > 100 µM (inactive) | > 100 µM (inactive) | > 100 µM (inactive) | > 100 µM (inactive) | > 100 µM (inactive) | > 100 µM (inactive) | > 100 µM (inactive) | > 100 µM (inactive) | > 100 µM (inactive) | > 100 µM (inactive) | > 100 µM (inactive) | > 100 µM (inactive) | > 100 µM (inactive) | > 100 µM (inactive) | > 100 µM (inactive) | > 100 µM (inactive) | – | > 100 µM (inactive) | > 100 µM (inactive) | –
6 | COC1C(O)CC(OC2C(C)OC(Oc3cc(O)c4c(O)c5c(cc4c3)C[C@@H]([C@H](OC)C(=O)[C@@H](O)[C@@H](C)O)[C@H](OC3CC(OC4CC(OC6CC(C)(O)C(O)C(C)O6)C(O)C(C)O4)C(O)C(C)O3)C5=O)CC2OC(C)=O)OC1C (stereo partly drawn) | 38.6 µM (inactive) | – | 20.3 µM (inactive) | 17.5 µM (inactive) | > 100 µM (inactive) | 70.8 µM (inactive) | > 100 µM (inactive) | 97.7 µM (inactive) | 24.4 µM (inactive) | – | > 100 µM (inactive) | 29 µM (inactive) | > 100 µM (inactive) | > 100 µM (inactive) | > 100 µM (inactive) | 66.5 µM (inactive) | 39.1 µM (inactive) | > 100 µM (inactive) | > 100 µM (inactive) | 3.47 µM (inactive)
7 | COc1c2c(cc3occ(-c4ccc(CC=C(C)C)cc4)c(=O)c13)OC(C)(C)C=C2 | – | 34.3 µM (inactive) | 85.1 µM (inactive) | 10.7 µM (inactive) | 84.7 µM (inactive) | 43.4 µM (inactive) | 10.3 µM (inactive) | 44.6 µM (inactive) | 31 µM (inactive) | – | 17.1 µM (inactive) | 48.1 µM (inactive) | > 100 µM (inactive) | 33.1 µM (inactive) | 84.1 µM (inactive) | 16.5 µM (inactive) | 13.9 µM (inactive) | > 100 µM (inactive) | 76.2 µM (inactive) | 60.5 µM (inactive)
8 | CC(=O)O[C@H]1C[C@](C)(O)[C@@]23CC([C@@H](OC(=O)C(C)(C)O)[C@@H](OC(C)=O)C2(COC(=O)c2ccccc2)[C@H]1OC(C)=O)C(C)(C)O3 (stereo partly drawn) | > 100 µM (inactive) | 55.5 µM (inactive) | > 100 µM (inactive) | 31.4 µM (inactive) | > 100 µM (inactive) | > 100 µM (inactive) | 78.9 µM (inactive) | > 100 µM (inactive) | 50.9 µM (inactive) | 60.3 µM (inactive) | 44 µM (inactive) | – | > 100 µM (inactive) | > 100 µM (inactive) | > 100 µM (inactive) | > 100 µM (inactive) | 67.1 µM (inactive) | > 100 µM (inactive) | > 100 µM (inactive) | > 100 µM (inactive)
9 | N#Cc1c(-c2ccccc2)c(C#N)c(=S)n(C2OC(CO)C(O)C(O)C2O)c1O (stereo not drawn) | > 100 µM (inactive) | > 100 µM (inactive) | > 100 µM (inactive) | > 100 µM (inactive) | > 100 µM (inactive) | – | > 100 µM (inactive) | > 100 µM (inactive) | > 100 µM (inactive) | – | > 100 µM (inactive) | > 100 µM (inactive) | > 100 µM (inactive) | > 100 µM (inactive) | > 100 µM (inactive) | > 100 µM (inactive) | > 100 µM (inactive) | > 100 µM (inactive) | > 100 µM (inactive) | > 100 µM (inactive)
10 | CCOC(=O)c1nc2ccc(C(F)(F)F)cc2nc1Nc1ccc(Cl)c(Cl)c1 | 69.7 µM (inactive) | 79.8 µM (inactive) | 97.3 µM (inactive) | > 100 µM (inactive) | 70.6 µM (inactive) | > 100 µM (inactive) | 38.3 µM (inactive) | 96.8 µM (inactive) | > 100 µM (inactive) | > 100 µM (inactive) | > 100 µM (inactive) | – | 27.5 µM (inactive) | > 100 µM (inactive) | 75.3 µM (inactive) | > 100 µM (inactive) | > 100 µM (inactive) | > 100 µM (inactive) | > 100 µM (inactive) | > 100 µM (inactive)
11 | N#CCCC1C(C#N)C2CC1C1C3C=CC(C3)C21 (stereo not drawn) | – | > 100 µM (inactive) | > 100 µM (inactive) | > 100 µM (inactive) | > 100 µM (inactive) | > 100 µM (inactive) | > 100 µM (inactive) | > 100 µM (inactive) | > 100 µM (inactive) | > 100 µM (inactive) | > 100 µM (inactive) | > 100 µM (inactive) | – | > 100 µM (inactive) | > 100 µM (inactive) | > 100 µM (inactive) | > 100 µM (inactive) | > 100 µM (inactive) | > 100 µM (inactive) | > 100 µM (inactive)
12 | CC(=O)NC1C(OCc2ccccc2)OC(CO)C(O)C1OC(C)C(=O)NC(C(=O)NC(CCC(=O)NCCCNc1ccc([N+](=O)[O-])c2[nH]c3ccccc3c(=O)c12)C(N)=O)C(C)C (stereo not drawn) | > 100 µM (inactive) | 51.9 µM (inactive) | > 100 µM (inactive) | > 100 µM (inactive) | > 100 µM (inactive) | > 100 µM (inactive) | > 100 µM (inactive) | > 100 µM (inactive) | > 100 µM (inactive) | > 100 µM (inactive) | > 100 µM (inactive) | > 100 µM (inactive) | > 100 µM (inactive) | > 100 µM (inactive) | > 100 µM (inactive) | > 100 µM (inactive) | 91.6 µM (inactive) | 59.6 µM (inactive) | > 100 µM (inactive) | –
13 | O/N=N/c1ccc(Sc2ccc(/N=N/O)cn2)nc1 | > 100 µM (inactive) | > 100 µM (inactive) | > 100 µM (inactive) | > 100 µM (inactive) | > 100 µM (inactive) | > 100 µM (inactive) | > 100 µM (inactive) | > 100 µM (inactive) | > 100 µM (inactive) | – | > 100 µM (inactive) | > 100 µM (inactive) | > 100 µM (inactive) | 46.8 µM (inactive) | > 100 µM (inactive) | > 100 µM (inactive) | > 100 µM (inactive) | > 100 µM (inactive) | > 100 µM (inactive) | –
14 | COc1ccc(Nc2nc(N)c(C(=O)c3ccc(Cl)cc3)s2)cc1 | < 0.01 µM (active) | < 0.01 µM (active) | < 0.01 µM (active) | < 0.01 µM (active) | < 0.01 µM (active) | 0.0261 µM (active) | < 0.01 µM (active) | < 0.01 µM (active) | 0.356 µM (active) | 18.2 µM (inactive) | < 0.01 µM (active) | 0.018 µM (active) | < 0.01 µM (active) | < 0.01 µM (active) | < 0.01 µM (active) | 24 µM (inactive) | < 0.01 µM (active) | 0.505 µM (active) | < 0.0135 µM (active) | –
